From paper PMC8402075, “Synthesis and Antiplasmodial Activity of Bisindolylcyclobutenediones” (Molecules, 2021) come the findings set out here.

The test system of experiment [1] is P. falciparum (NF54-luc strain) erythrocytic stages. The experiment is described as follows: Luciferase-based viability screening for antiplasmodial activity. The class given is cell-based, Plasmodium falciparum. The note with it: for inhibition at 3 µM: read-out: Inhibition at 3 µM [%]. As for the experimental part:
All synthesized new bisindolylcyclobutenediones 2a–2ar and the related bisindolylmaleimide 8 [37] were screened for inhibition of erythrocytic stages of Plasmodium falciparum employing a bioluminescence-based viability assay on transgenic parasites that constitutively express luciferase (PfNF54-luc). Initially, the compounds were evaluated in single-dose test runs (3 µM). If >20% viability inhibition was observed, dose-response curves were generated and IC50 values were calculated (Table 1). […] The bisindolylmaleimide 8 [37] inhibited the parasites in a single-digit micromolar concentration, similar to many of the bisindolylcyclobutenediones in the study. Because the bisindolylcyclobutenediones 2 display a higher degree of structural novelty, only this compound class was further pursued for its antiplasmodial activity. […] These structural features were considered unfavorable for orientations as illustrated in Figure 2 with 2a and Pfmap-2, PfPK5, PfCDPK2, Pflammer, and PfPK7, respectively. However, a structure generated for 2a in PfGSK-3 in which the indole units are oriented perpendicular to each other (Figure 2a) was considered compatible with the indicated substitution pattern. Consequently, the potent antiplasmodial derivatives 2k, 2ad, and 2ae were tested in a kinase Glo assay for inhibition of recombinant PfGSK-3. […] For the compounds with particularly potent antiplasmodial activity, cytotoxicity was also determined using the human cell line THP-1 to assess selectivity with respect to parasite cells (Table 2).
Screening for the antiplasmodial activity of test compounds was performed by luciferase-based viability assays as reported previously. In brief, asexual erythrocytic stages of transgenic NF54-luc P. falciparum were cultured as described elsewhere. Parasite cultures with parasitaemia of 0.5–1% were incubated in the presence of 3 µM test compounds for 48 h. After the subsequent addition of Bright-Glo substrate solution (Promega, Madison, WI), the resulting luminescence was measured. Untreated cultures (0.01% DMSO) were used as negative controls. Experiments were performed in triplicate and were repeated as a whole at least twice. Blasticidin (Sigma-Aldrich, St. Louis, MO, USA) was included as a positive control.

A further experiment concerns human THP-1 cell line. The experiment in a line: Cytotoxicity assay on human THP-1 cell line (Alamar Blue). The class given is cell-based. The note with it: for Selectivity Index (SI) = IC50, THP-1/IC50, Pf: THP-1 versus P. falciparum NF54-luc; for IC50: human THP-1 cell line, 48 h, Alamar Blue. How it is done: The cytotoxicity of selected antiplasmodial bisindolylcyclobutenediones was determined against THP-1 cells following a protocol described previously. In brief, THP-1 cells were incubated with test compounds in serial compound dilutions in the presence of 0.01% DMSO at 37 °C. After 48 h, Alamar Blue was added, and after 4 h the fluorescence was read (λex = 544 nm, λem = 590 nm) using a microplate reader. THP-1 cells in wells containing medium plus 0.01% DMSO served as negative controls. Experiments were performed in triplicate and were repeated as a whole at least twice.

Setting [2] is: Plasmodium falciparum, NF54, 48 h, read-out: IC50 [µM], concentration for 50% inhibition of P. falciparum (NF54-luc strain) erythrocytic stages.
Where [3] appears, read: Plasmodium falciparum, NF54, 48 h.
Where [4] appears, read: Plasmodium falciparum, NF54, read-out: IC50 P. falciparum (quoted in the discussion).
The mark [5] stands for this setting: Plasmodium falciparum, NF54, read-out: IC50, Pf [µM].

Read-outs that look alike come from different tables or passages of the source.

`O=c1c(-c2c[nH]c3ccccc23)c(-c2c[nH]c3ccccc23)c1=O` [2a, 3,4-Bis(1H-indol-3-yl)cyclobut-3-ene-1,2-dione]: in experiment [1] (setting [2]), the IC50 amounted to 8.33 µM.
As a reminder, the inhibition is the relative decrease from the control value, in per cent. In the case of `COc1ccc2[nH]cc(-c3c(-c4c[nH]c5ccc(F)cc45)c(=O)c3=O)c2c1` [2ab, 3-(5-Fluoro-1H-indol-3-yl)-4-(5-methoxy-1H-indol-3-yl)cyclobut-3-ene-1,2-dione], the inhibition at 3 µM in experiment [1] (setting [3]) turned out to be 19.2 ± 3.1%.
On to `COc1ccc2[nH]cc(-c3c(-c4c[nH]c5ccc(Cl)cc45)c(=O)c3=O)c2c1` [2ac, 3-(5-Chloro-1H-indol-3-yl)-4-(5-methoxy-1H-indol-3-yl)cyclobut-3-ene-1,2-dione], for which the IC50 in experiment [1] (setting [2]) is 1.52 µM.
Take `COc1ccc2[nH]cc(-c3c(-c4cn(C)c5ccc(Br)cc45)c(=O)c3=O)c2c1` [2ag, 3-(5-Bromo-1-methyl-1H-indol-3-yl)-4-(5-methoxy-1H-indol-3-yl)cyclobut-3-ene-1,2-dione]: the inhibition at 3 µM in experiment [1] (setting [3]) is -0.06 ± 2.43%. For the same molecule, the IC50 in experiment [1] (setting [4]) is more than 10 µM.
Take `COc1ccc2[nH]cc(-c3c(-c4c[nH]c5ccc(C#N)cc45)c(=O)c3=O)c2c1` [2ah, 3-[2-(5-Methoxy-1H-indol-3-yl)-3,4-dioxocyclobut-1-en-1-yl]-1H-indole-5-carbonitrile]: in experiment [1] (setting [2]), the IC50 came out at 6.92 µM.
For `COc1ccc2[nH]cc(-c3c(-c4c[nH]c5c(Cl)cccc45)c(=O)c3=O)c2c1` [2ai, 3-(7-Chloro-1H-indol-3-yl)-4-(5-methoxy-1H-indol-3-yl)cyclobut-3-ene-1,2-dione], the “Selectivity Index (SI) = IC50, THP-1/IC50, Pf” value (“Selectivity Index (SI) = IC50” below) in the experiment with human THP-1 cell line is given as 259. The IC50 in the experiment on human THP-1 cell line came to 179 µM; in experiment [1] (setting [2]), 0.691 µM; in experiment [1] (setting [5]), 0.69 µM. In addition, in experiment [1] (setting [3]), the inhibition at 3 µM stood at 84.5 ± 1%.
Turning to `COc1ccc2[nH]cc(-c3c(-c4c[nH]c5c(Br)cccc45)c(=O)c3=O)c2c1` [2aj, 3-(7-Bromo-1H-indol-3-yl)-4-(5-methoxy-1H-indol-3-yl)cyclobut-3-ene-1,2-dione], the “Selectivity Index (SI) = IC50” value with human THP-1 cell line came out at 4.7. The figures for the IC50 (with human THP-1 cell line; in experiment [1] (setting [2]); in experiment [1] (setting [5])) were 1.42 µM, 0.296 µM and 0.3 µM, respectively. Moreover, the inhibition at 3 µM in experiment [1] (setting [3]) was 99.5 ± 0.4%.
Taken in the same sequence, the figures for `COc1ccc2[nH]cc(-c3c(-c4c[nH]c5c(I)cccc45)c(=O)c3=O)c2c1` [2ak, 3-(7-Iodo-1H-indol-3-yl)-4-(5-methoxy-1H-indol-3-yl)cyclobut-3-ene-1,2-dione] were 7.0, 0.84 µM, 0.116 µM, 0.12 µM and 98.8 ± 1.2%.
`CCc1cccc2c(-c3c(-c4c[nH]c5ccc(OC)cc45)c(=O)c3=O)c[nH]c12` [2al, 3-(7-Ethyl-1H-indol-3-yl)-4-(5-methoxy-1H-indol-3-yl)cyclobut-3-ene-1,2-dione]: the “Selectivity Index (SI) = IC50” value with human THP-1 cell line amounted to 1.4. In addition, the values for the IC50 (with human THP-1 cell line; in experiment [1] (setting [2]); in experiment [1] (setting [5])) were 0.7 µM, 0.511 µM and 0.51 µM, respectively. For the same molecule, the inhibition at 3 µM in experiment [1] (setting [3]) is 87 ± 0.5%.
With `COc1ccc2[nH]cc(-c3c(-c4c[nH]c5cc(Br)ccc45)c(=O)c3=O)c2c1` [2am, 3-(6-Bromo-1H-indol-3-yl)-4-(5-methoxy-1H-indol-3-yl)cyclobut-3-ene-1,2-dione], in experiment [1] (setting [3]), the inhibition at 3 µM was 9.55 ± 5.8%.
As for `COc1ccc2[nH]cc(-c3c(-c4c[nH]c5cccc(Br)c45)c(=O)c3=O)c2c1` [2an, 3-(4-Bromo-1H-indol-3-yl)-4-(5-methoxy-1H-indol-3-yl)cyclobut-3-en-1,2-dione], in experiment [1] (setting [3]), the inhibition at 3 µM is 25.7 ± 2.7%.
Turning to `COc1ccc2c(c1)c(-c1c(-c3c[nH]c4ccc(Br)cc34)c(=O)c1=O)cn2C` [2ao, 3-(5-Bromo-1H-indol-3-yl)-4-(5-methoxy-1-methyl-1H-indol-3-yl)cyclobut-3-en-1,2-dione], the “Selectivity Index (SI) = IC50” value in the experiment with human THP-1 cell line worked out at 6.3. The IC50 worked out at 3.13 µM in the experiment on human THP-1 cell line, 0.504 µM in experiment [1] (setting [2]), 0.5 µM in experiment [1] (setting [5]) and 0.54 µM in experiment [1] (setting [4]). In experiment [1] (setting [3]), the inhibition at 3 µM was determined as 95.4 ± 1.1%.
Turning to `O=c1c(-c2c[nH]c3ccc(O)cc23)c(-c2c[nH]c3ccc(Br)cc23)c1=O` [2ap, 3-(5-Bromo-1H-indol-3-yl)-4-(5-hydroxy-1H-indol-3-yl)cyclobut-3-ene-1,2-dione], the inhibition at 3 µM in experiment [1] (setting [3]) is 2.52 ± 1.4%.
As for `O=c1c(-c2c[nH]c3ccc(I)cc23)c(-c2c[nH]c3ccc(I)cc23)c1=O` [2aq, 3,4-Bis(5-iodo-1H-indol-3-yl)cyclobut-3-ene-1,2-dione], the inhibition at 3 µM in experiment [1] (setting [3]) was 1.79 ± 1.8%.
Regarding `O=c1c(-c2c[nH]c3ccccc23)c(-c2c[nH]c3ccc(Cl)cc23)c1=O` [2c, 3-(5-Chloro-1H-indol-3-yl)-4-(1H-indol-3-yl)cyclobut-3-ene-1,2-dione], the IC50 in experiment [1] (setting [2]) was determined as 4.23 µM.
Regarding `O=c1c(-c2c[nH]c3ccccc23)c(-c2c[nH]c3ccc(OCc4ccccc4)cc23)c1=O` [2e, 3-[5-(Benzyloxy)-1H-indol-3-yl]-4-(1H-indol-3-yl)cyclobut-3-ene-1,2-dione], the inhibition at 3 µM in experiment [1] (setting [3]) is -4.43 ± 10.6%.
For the molecule `N#Cc1ccc2[nH]cc(-c3c(-c4c[nH]c5ccccc45)c(=O)c3=O)c2c1` [2f, 3-[2-(1H-Indol-3-yl)-3,4-dioxocyclobut-1-ene-1-yl]-1H-indol-5-carbonitrile], the IC50 in experiment [1] (setting [2]) is 6.72 µM.
For `Cc1[nH]c2ccccc2c1-c1c(-c2c[nH]c3ccccc23)c(=O)c1=O` [2g, 3-(1H-Indol-3-yl)-4-(2-methyl-1H-indol-3-yl)cyclobut-3-ene-1,2-dione], the IC50 in experiment [1] (setting [2]) is more than 30 µM.
For `Cn1cc(-c2c(-c3cn(C)c4ccccc34)c(=O)c2=O)c2ccccc21` [2i, 3,4-Bis(1-methyl-1H-indol-3-yl)cyclobut-3-ene-1,2-dione], the inhibition at 3 µM in experiment [1] (setting [3]) is 3.53 ± 1.7%.
Turning to `O=c1c(-c2c(-c3ccccc3)[nH]c3ccccc23)c(-c2c(-c3ccccc3)[nH]c3ccccc23)c1=O` [2m, 3,4-Bis(2-phenyl-1H-indol-3-yl)cyclobut-3-ene-1,2-dione], in experiment [1] (setting [2]), the IC50 was found to be 2.47 µM.
Regarding `O=c1c(-c2c[nH]c3ccc(Br)cc23)c(-c2c[nH]c3ccc(Br)cc23)c1=O` [2o, 3,4-Bis(5-bromo-1H-indol-3-yl)cyclobut-3-ene-1,2-dione], the IC50 in experiment [1] (setting [2]) is more than 30 µM.
For `N#Cc1ccc2[nH]cc(-c3c(-c4c[nH]c5ccc(C#N)cc45)c(=O)c3=O)c2c1` [2p, 3,3’-(3,4-Dioxocyclobut-1-ene-1,2-diyl)bis(1H-indole-5-carbonitrile)], the inhibition at 3 µM in experiment [1] (setting [3]) was -3.1 ± 0.9%.
Regarding `Cn1cc(-c2c(-c3c[nH]c4ccc(Br)cc34)c(=O)c2=O)c2ccccc21` [2t, 3-(5-Bromo-1H-indol-3-yl)-4-(1-methyl-1H-indol-3-yl)cyclobut-3-ene-1,2-dione], the inhibition at 3 µM in experiment [1] (setting [3]) is 1.38 ± 3.3%.
`COc1ccc2[nH]cc(-c3c(-c4c(C)[nH]c5ccccc45)c(=O)c3=O)c2c1` [2v, 3-(5-Methoxy-1H-indol-3-yl)-4-(2-methyl-1H-indol-3-yl)cyclobut-3-ene-1,2-dione]: the IC50 in experiment [1] (setting [2]) came out at 10 µM.
As for `Cc1[nH]c2ccccc2c1-c1c(-c2c(-c3ccccc3)[nH]c3ccccc23)c(=O)c1=O` [2w, 3-(2-Methyl-1H-indol-3-yl)-4-(2-phenyl-1H-indol-3-yl)cyclobut-3-ene-1,2-dione], the IC50 in experiment [1] (setting [2]) was 9.26 µM.
Regarding `Cc1[nH]c2ccccc2c1-c1c(-c2c[nH]c3ccc(Br)cc23)c(=O)c1=O` [2x, 3-(5-Bromo-1H-indol-3-yl)-4-(2-methyl-1H-indol-3-yl)cyclobut-3-ene-1,2-dione], the IC50 in experiment [1] (setting [2]) was more than 30 µM.
Broadly, the Inhibition is the drop in the measured response relative to a control, in per cent. Turning to `CN(CC[C@H](N)CC(=O)N[C@H]1C=C[C@H](n2ccc(N)nc2=O)O[C@@H]1C(=O)O)C(=N)N` [BSD, Blasticidin, reference compound], the “Inhibition at 3 µM [%]” value in experiment [1] (3 µM test compound, 48 h, P. falciparum NF54-luc erythrocytic stages) was determined as 97.6 ± 0.5%. Also, the IC50 in experiment [1] (Table 1, 48 h incubation, luminescence viability readout, read-out: IC50 [µM], concentration for 50% inhibition of P. falciparum (NF54-luc strain) erythrocytic stages) came out at 0.288 µM.
On to `CN1C(=O)C(c2c[nH]c3ccccc23)=C(c2c[nH]c3ccccc23)C1=O` [compound 8, reference compound], for which the IC50 in experiment [1] (setting [2]) came to 4 µM. Besides, the inhibition at 3 µM in experiment [1] (setting [3]) came to 34.6 ± 0.8%.
